From US20100222282A1, “METHOD OF DIAGNOSIS AND METHOD OF TREATMENT” (ENTRESS AB, priority 2006, published 2010)

Legend:
[1] = rats of the experimental groups
From the text: (§1) The aim of this experiment was to study the relationship between the blood level of AKG and survival of elderly rats. Forty Sprague-Dawley rats randomly chosen (2-3 years old) from the Department of Cell & Organisms Biology in Lund University were used in the experiment. The rats were divided into four groups, 10 rats each, two control groups and two experiment groups. […] The mixtures were titrated with 0.01 M NaOH to correct the pH.
(§2) Blood samples were taken at the beginning of the experiment from all rats and blood AKG levels were estimated. Experimental time was 8 weeks and parameters as AKG blood levels and survival were monitored.

[2] = test system: Sprague-Dawley rats (2-3 years old); conditions: experimental groups, 8 weeks
From the text: as §1, §2

O=C([O-])CCC(=O)C(=O)[O-].[Na+].[Na+] [Na2AKG * 2H2O, sodium alpha-ketoglutarate]
Blood levels of AKG after oral feeding [1]: over 0.5 μg/ml | Survival of rats with initially low blood AKG (under 0.1 μg/ml) [2]: did survive the whole experiment
